According to US12649733B2, “3,6-diamino-pyridazin-3-yl derivatives, pharmaceutical compositions containing them and their uses as pro-apoptotic agents” (LES LABORATOIRES SERVIER, priority 2019, dated 2026):

How the values were obtained:
Bcl-xL protein = molecular target: T1, Bcl-xL protein (Homo sapiens, UniProt Q07817, N197C); test: Fluorescence quenching assay (PUMA peptide displacement); assay type: binding; conditions: 1 nM protein, 400 nM peptide, 2 hours at 23° C.; KI determined from IC50
T1 construct: (2-197)[N197C]; His-His (two His8 stretches joined by a Gly/Ala/Ser/Thr linker)
T1 sequence (Q07817 2-197 N197C): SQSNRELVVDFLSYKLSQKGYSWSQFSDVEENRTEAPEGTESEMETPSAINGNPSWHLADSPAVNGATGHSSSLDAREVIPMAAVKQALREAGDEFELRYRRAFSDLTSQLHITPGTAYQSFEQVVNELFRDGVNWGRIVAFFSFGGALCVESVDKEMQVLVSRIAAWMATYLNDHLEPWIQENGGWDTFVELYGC
Summary of the method: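 Displacement of a TQ5WS-quencher-labelled PUMA peptide (400 nM) from Cy5-labelled His-tagged Bcl-xL 2-197 N197C (1 nM) raises fluorescence. An 11-point compound dilution was incubated 2 h at 23 °C in HEPES 10 mM, NaCl 150 mM, 0.05% Tween 20, pH 7.4, 5% DMSO. Fluorescence was read at Ex 620/Em 680 nm, and KI was derived from IC50.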

MOLT-4 cells = test: MOLT-4 cell viability, MTT assay; assay type: cell-based; conditions: Homo sapiens, MOLT-4, 48 h, 48 h exposure
Summary of the method: (§1)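 Cells grown in RPMI 1640 with 10% heat-inactivated FBS at 37° C, 5% CO2, exposed 48 h to nine 3.16-fold serial compound dilutions in triplicate. MTT added for 4 h, SDS/HCl solubilisation overnight, absorbance at 540 nm; IC50 by four-parameter fit.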

H146 cells = test: H146 cell viability, MTT assay; assay type: cell-based; conditions: Homo sapiens, NCI-H146, 48 h, 48 h exposure
Summary of the method: as §1

Compound | Ki (Bcl-xL protein) [pM] | IC50 (MOLT-4 cells) [nM] | IC50 (H146 cells) [nM]
Cc1cc(N(CCCCCN2CCNCC2)c2nc(C(=O)O)c(CCCOc3ccc(C#CCN(C)C)cc3F)s2)nnc1Nc1nc2ccccc2s1 [Example 189, 2-[[6-(1,3-Benzothiazol-2-ylamino)-5-methyl-pyridazin-3-yl]-(5-piperazin-1-ylpentyl)amino]-5-[3-[4-[3-(dimethylamino)prop-1-ynyl]-2-fluoro-phenoxy]propyl]thiazole-4-carboxylic acid] | 7.4 | 171 | 94.8
CNCCN(C)CCCCCN(c1cc(C)c(Nc2nc3ccccc3s2)nn1)c1nc(C(=O)O)c(CCCOc2ccc(C#CCN(C)C)cc2F)s1 [Example 190, 2-[[6-(1,3-Benzothiazol-2-ylamino)-5-methyl-pyridazin-3-yl]-[5-[methyl-[2-(methylamino)ethyl]amino]pentyl]amino]-5-[3-[4-[3-(dimethylamino)prop-1-ynyl]-2-fluoro-phenoxy]propyl]thiazole-4-carboxylic acid] | 3.2 | 54.9 | 78.3
Cc1cc(N(CCCCN)c2nc(C(=O)O)c(CCCOc3ccc(C#CCN(C)C)cc3F)s2)nnc1Nc1nc2ccccc2s1 [Example 192, 2-[4-Aminobutyl-[6-(1,3-benzothiazol-2-ylamino)-5-methyl-pyridazin-3-yl]amino]-5-[3-[4-[3-(dimethylamino)prop-1-ynyl]-2-fluoro-phenoxy]propyl]thiazole-4-carboxylic acid] | 2.9 | 96.4 | 11.9
CNCCCCCN(c1cc(C)c(Nc2nc3ccccc3s2)nn1)c1nc(C(=O)O)c(CCCOc2ccc(C#CCN(C)C)cc2F)s1 [Example 194, 2-[[6-(1,3-Benzothiazol-2-ylamino)-5-methyl-pyridazin-3-yl]-[5-(methylamino)pentyl]amino]-5-[3-[4-[3-(dimethylamino)prop-1-ynyl]-2-fluoro-phenoxy]propyl]thiazole-4-carboxylic acid] | 3.2 | 129 | 27

Stronger by Ki (Bcl-xL protein), values ahead:

Ki (Bcl-xL protein) [pM] | IC50 (MOLT-4 cells) [nM] | IC50 (H146 cells) [nM] | Compound
2.8 | 2200 | 83.8 | Cc1cc(N(CCCCCN)c2nc(C(=O)O)c(CCCOc3ccc(C#CCN(C)C)cc3F)s2)nnc1Nc1nc2ccccc2s1 [Example 191, 2-[5-Aminopentyl-[6-(1,3-benzothiazol-2-ylamino)-5-methyl-pyridazin-3-yl]amino]-5-[3-[4-[3-(dimethylamino)prop-1-ynyl]-2-fluoro-phenoxy]propyl]thiazole-4-carboxylic acid]
1.8 | 3410 | 5.44 | CNCCCCN(c1cc(C)c(Nc2nc3ccccc3s2)nn1)c1nc(C(=O)O)c(CCCOc2ccc(C#CCN(C)C)cc2F)s1 [Example 188, 2-[[6-(1,3-Benzothiazol-2-ylamino)-5-methyl-pyridazin-3-yl]-[4-(methylamino)butyl]amino]-5-[3-[4-[3-(dimethylamino)prop-1-ynyl]-2-fluoro-phenoxy]propyl]thiazole-4-carboxylic acid]
1.8 | 529 | 525 | Cc1cc(N(CCCCCNCCCN2CCN(C)CC2)c2nc(C(=O)O)c(CCCOc3ccc(C#CCN(C)C)cc3F)s2)nnc1Nc1nc2ccccc2s1 [Example 195, 2-[[6-(1,3-Benzothiazol-2-ylamino)-5-methyl-pyridazin-3-yl]-[5-[3-(4-methylpiperazin-1-yl)propylamino]pentyl]amino]-5-[3-[4-[3-(dimethylamino)prop-1-ynyl]-2-fluoro-phenoxy]propyl]thiazole-4-carboxylic acid]
1.3 | 92.5 | 65 | CNCC#Cc1ccc(OCCCc2sc(N(CCCC(O)CN(C)C)c3cc(C)c(Nc4nc5ccccc5s4)nn3)nc2C(=O)O)c(F)c1 (stereo not drawn) [Example 193, 2-[[6-(1,3-Benzothiazol-2-ylamino)-5-methyl-pyridazin-3-yl]-[5-(dimethylamino)-4-hydroxy-pentyl]amino]-5-[3-[2-fluoro-4-[3-(methylamino)prop-1-ynyl]phenoxy]propyl]thiazole-4-carboxylic acid]
